US6660742B2, “Compositions and methods of the use thereof achiral analogues of CC-1065 and the duocarmycins” (priority 2000, dated 2003)
Several values for one entry are separate records, joined by “and”; a condition that tells them apart may be missing. Equal values may be shown once. Read-outs that look alike come from different tables or passages of the source.

Assays:
UACC-257 = test: NCI screen, UACC-257 (Melanoma)
Protocol: (§1) The compounds of this invention were also tested against the panel of 60 human cancer cell lines at the National Cancer Institute, Bethesda, Md. […] The cytrotoxicity studies were conducted using a 48 hour exposure, and measuring the optical density of sulforhodamide B-derived color.

OVCAR-8 = test: NCI screen, OVCAR-8 (Ovarian Cancer)
Protocol: (§2) The compounds of this invention were also tested against the panel of 60 human cancer cell lines at the National Cancer Institute, Bethesda, Md. (44). The cytrotoxicity studies were conducted using a 48 hour exposure, and measuring the optical density of sulforhodamide B-derived color.

HS 578T = test: NCI screen, HS 578T (Breast Cancer)
Protocol: as §2

M14 = test: NCI screen, M14 (Melanoma)
Protocol: as §1

TK-10 = test: NCI screen, TK-10 (Renal Cancer)
Protocol: as §1

SF-295 = test: NCI screen, SF-295 (CNS Cancer)
Protocol: as §1

SK-MEL-28 = test: NCI screen, SK-MEL-28 (Melanoma)
Protocol: as §1

NCI-H226 = test: NCI screen, NCI-H226 (Non-Small Cell Lung Cancer); format: cell-based, human
Protocol: as §1

SF-539 = test: NCI screen, SF-539 (CNS Cancer)
Protocol: as §1

MOLT-4 = test: NCI screen, MOLT-4 (Leukemia)
Protocol: as §1

HCC-2998 = test: NCI screen, HCC-2998 (Colon Cancer)
Protocol: as §1

SK-OV-3 = test: NCI screen, SK-OV-3 (Ovarian Cancer)
Protocol: as §1

MCF7/ADR-RES = test: NCI screen, MCF7/ADR-RES (Breast Cancer); format: cell-based, human; settings: MCF7/ADR-RES
Protocol: as §1

U251 = test: NCI screen, U251 (CNS Cancer)
Protocol: as §1

HT29 = test: NCI screen, HT29 (Colon Cancer)
Protocol: as §1

[1] = test system: panel of 60 human cancer cell lines; test: NCI in-vitro cytotoxicity screen, whole panel; format: cell-based
SK-MEL-5 = test: NCI screen, SK-MEL-5 (Melanoma)
Protocol: as §1

UO-31 = test: NCI screen, UO-31 (Renal Cancer)
Protocol: as §1

EKVX = test: NCI screen, EKVX (Non-Small Cell Lung Cancer)
Protocol: as §1

MCF7 = test: NCI screen, MCF7 (Breast Cancer)
Protocol: as §1

O=C(Nc1cc(O)ccc1CCCl)c1cc2cc(NC(=O)c3cc4ccccc4o3)ccc2[nH]1 [Compound 1, 4-(2-Chloroethyl)-3-[5-(5-benzofuran-2-carboxamido)indole-2-carboxamido]phenol]
GI50 (UACC-257): 1.88 µM
TGI (UACC-257): 3.40E−06 Molar
Percent Growth (UACC-257; Log10 Concentration −4.0): −97%
Percent Growth (UACC-257; Log10 Concentration −7.0): 104%
Percent Growth (UACC-257; Log10 Concentration −8.0): 102%
Percent Growth (OVCAR-8): −61%
GI50 (OVCAR-8; OVCAR-8): 1.32 µM
TGI (OVCAR-8; OVCAR-8): 3.28E−06 Molar
Percent Growth (OVCAR-8; OVCAR-8, Log10 Concentration −4.0): −63%
Percent Growth (OVCAR-8; OVCAR-8, Log10 Concentration −6.0): 65%
Percent Growth (OVCAR-8; OVCAR-8, Log10 Concentration −7.0): 94%
Percent Growth (OVCAR-8; OVCAR-8, Log10 Concentration −8.0): 94%
Percent Growth (HS 578T): 89% and 77%
GI50 (HS 578T; HS 578T): 11.8 µM
TGI (HS 578T; HS 578T): 3.96E−05 Molar
Percent Growth (HS 578T; HS 578T, Log10 Concentration −4.0): −38%
Percent Growth (HS 578T; HS 578T, Log10 Concentration −5.0): 57%
Percent Growth (HS 578T; HS 578T, Log10 Concentration −7.0): 92%
Percent Growth (M14): −75%
GI50 (M14; M14): 1.49 µM
TGI (M14; M14): 3.19E−06 Molar
Percent Growth (M14; M14, Log10 Concentration −4.0): −99%
Percent Growth (M14; M14, Log10 Concentration −6.0): 76%
Percent Growth (M14; M14, Log10 Concentration −7.0): 91%
Percent Growth (M14; M14, Log10 Concentration −8.0): 93%
GI50 (HCT-15): 1.91 µM
Percent Growth (HCT-15): −91%
TGI (HCT-15): 4.89E−06 Molar
Percent Growth (TK-10): −31%
GI50 (TK-10; TK-10): 2.45 µM
TGI (TK-10; TK-10): 5.85E−06 Molar
Percent Growth (TK-10; TK-10, Log10 Concentration −4.0): −95%
Percent Growth (TK-10; TK-10, Log10 Concentration −6.0): 101%
Percent Growth (TK-10; TK-10, Log10 Concentration −7.0): 98%
Percent Growth (TK-10; TK-10, Log10 Concentration −8.0): 104%
Percent Growth (SF-295): 92% and 94%
GI50 (SF-295; SF-295): 2.32 µM
TGI (SF-295; SF-295): 6.46E−06 Molar
Percent Growth (SF-295; SF-295, Log10 Concentration −4.0): −96%
Percent Growth (SF-295; SF-295, Log10 Concentration −5.0): −21%
Percent Growth (SF-295; SF-295, Log10 Concentration −6.0): 91%
CC50 (RPMI-8226): > 100 µM
GI50 (RPMI-8226): 1.86 µM
Percent Growth (RPMI-8226): −41%
TGI (RPMI-8226): 5.59E−06 Molar
GI50 (SK-MEL-28): 2.4 µM
TGI (SK-MEL-28): 6.10E−06 Molar
Percent Growth (SK-MEL-28; Log10 Concentration −4.0): −98%
Percent Growth (SK-MEL-28; Log10 Concentration −6.0): 97%
Percent Growth (SK-MEL-28; Log10 Concentration −8.0): 103%
GI50 (NCI-H322M): 2.83 µM
Percent Growth (NCI-H322M): 93%
TGI (NCI-H322M): 9.60E−06 Molar
GI50 (NCI-H226): 4.09 µM
TGI (NCI-H226): 1.62E−05 Molar
Percent Growth (NCI-H226; Log10 Concentration −4.0): −90%
Percent Growth (NCI-H226; Log10 Concentration −8.0): 100%
GI50 (SF-539): 1.92 µM
TGI (SF-539): 4.16E−06 Molar
Percent Growth (SF-539; Log10 Concentration −4.0): −100%
Percent Growth (SF-539; Log10 Concentration −8.0): 92%
GI50 (MOLT-4): 1.14 µM
Percent Growth (MOLT-4; Log10 Concentration −4.0): 4%
GI50 (HCC-2998): 1.76 µM
TGI (HCC-2998): 3.56E−06 Molar
Percent Growth (HCC-2998; Log10 Concentration −4.0): −97%
Percent Growth (HCC-2998; Log10 Concentration −7.0): 97%
Percent Growth (HCC-2998; Log10 Concentration −8.0): 96%
GI50 (SK-OV-3): 2.93 µM
TGI (SK-OV-3): 7.64E−06 Molar
Percent Growth (SK-OV-3; Log10 Concentration −4.0): −99%
Percent Growth (SK-OV-3; Log10 Concentration −7.0): 102%
GI50 (MCF7/ADR-RES): 1.65 µM
TGI (MCF7/ADR-RES): 3.79E−06 Molar
Percent Growth (MCF7/ADR-RES; Log10 Concentration −4.0): −55%
Percent Growth (MCF7/ADR-RES; Log10 Concentration −5.0): −58%
Percent Growth (MCF7/ADR-RES; Log10 Concentration −6.0): 80%
Percent Growth (MCF7/ADR-RES; Log10 Concentration −7.0): 97%
Percent Growth (MCF7/ADR-RES; Log10 Concentration −8.0): 93%
Percent Growth (U251): 77%
GI50 (U251; U251): 2.41 µM
TGI (U251; U251): 1.23E−05 Molar
Percent Growth (U251; U251, Log10 Concentration −4.0): −71%
Percent Growth (U251; U251, Log10 Concentration −5.0): 7%
Percent Growth (U251; U251, Log10 Concentration −7.0): 101%
GI50 (HT29): 2.29 µM
TGI (HT29): 1.15E−05 Molar
Percent Growth (HT29; Log10 Concentration −4.0): −51%
Percent Growth (HT29; Log10 Concentration −8.0): 96%
range of activity ([1]; 48 hour exposure): micromolar range
activity against leukemia cells ([1]; leukemia cells): none of these compounds showed much activity
activity against melanoma cells ([1]; melanoma cells): active
activity against solid tumors cells ([1]; solid tumors cells): strong activity
GI50 (SK-MEL-5): 1.73 µM
TGI (SK-MEL-5): 3.34E−06 Molar
Percent Growth (SK-MEL-5; Log10 Concentration −4.0): −97%
Percent Growth (SK-MEL-5; Log10 Concentration −6.0): 92%
Percent Growth (SK-MEL-5; Log10 Concentration −7.0): 104%
Percent Growth (UO-31): 123%
GI50 (UO-31; UO-31): 3 µM
TGI (UO-31; UO-31): 6.38E−06 Molar
Percent Growth (UO-31; UO-31, Log10 Concentration −4.0): −97%
Percent Growth (UO-31; UO-31, Log10 Concentration −5.0): −30%
Percent Growth (UO-31; UO-31, Log10 Concentration −7.0): 102%
Percent Growth (UO-31; UO-31, Log10 Concentration −8.0): 105%
GI50 (EKVX): 1.78 µM
TGI (EKVX): 4.41E−06 Molar
Percent Growth (EKVX; Log10 Concentration −4.0): −80%
Percent Growth (EKVX; Log10 Concentration −7.0): 96%
GI50 (MCF7): 1.03 µM
TGI (MCF7): 2.27E−06 Molar
Percent Growth (MCF7; Log10 Concentration −4.0): −100%
Percent Growth (MCF7; Log10 Concentration −8.0): 111%
